From patent US9393316B2, “Cancer targeting peptides for enhancing anti-cancer drug delivery and therapeutic efficiencies” (priority 2014, dated 2016)
Where no end group is shown, it is not given here.

Tested on: HCT116 cells
Assay: Flow cytometry binding of biotinylated pHCT74 peptide
Set-up: species or system human
Protocol: We propose the use of biotinylated pHCT74 peptide and a chemical cross-linker, DTSSP, to identify the unknown target protein on the plasma membrane of HCT116 cells. A biotin molecule was conjugated to the C terminus of synthetic pHCT74 peptide. The binding characteristics of biotinylated pHCT74 peptide to HCT116 cells were evaluated by flow cytometry for analyzing the concentration dependency of the binding (FIG. 4B). […] The membrane proteins of HCT116 cells were bound with biotin-pHCT74 peptide, cross-linked by DTSSP; followed by SDS-PAGE separation and LC/MS/MS analysis. A sharp bands was detected by silver staining (FIG. 4C), and subsequently analyzed by LC/MS/MS after tryptic digestion. Twelve tryptic peptides were identified as alpha-enolase (ENO1) fragments by search algorithms based on MASCOT software. Coverage of the identified peptides was 57% of the alpha-enolase sequence and the probability score was 424 (FIG. 4D).

## biotinylated pHCT74 peptide: synthetic pHCT74 peptide with a biotin molecule conjugated to the C terminus (SSMDIVLRAPLMGGG-biotin)
  cell binding activity after C-terminal biotin addition: did not affect its cell binding activity
